Results as given in patent US12109187B2, “Antimicrobial compositions and related methods” (priority 2020, dated 2024).
Entries after “also recorded” stand apart in the source; their conditions may differ.

Legend:
[1] = tested on: F. tularensis LVS; assay type: cell-based, Francisella tularensis
[2] = tested on: F. tularensis live vaccine strain (LVS); test: microbe, parasite or virus in culture; assay type: cell-based, Francisella tularensis
[3] = tested on: LpnA; assay type: cell-based, Francisella tularensis LVS
[4] = tested on: mammalian cells
[5] = tested on: A. baumannii; assay type: cell-based, Acinetobacter baumannii
[6] = tested on: IglC; assay type: cell-based, Francisella tularensis LVS
[7] = tested on: MglA/SspA regulon; assay type: cell-based, Francisella tularensis LVS
[8] = tested on: Acinetobacter baumannii; set-up: species or system Galleria mellonella; settings: in vivo
[9] = tested on: IglA; assay type: cell-based, Francisella tularensis LVS
[10] = tested on: F. tularensis LVS/pTC3D; assay type: cell-based, Francisella tularensis
[11] = tested on: TNFα; assay type: cell-based

C=CCc1cc2c(c(OC)c1OC)OCO2 [dillapiole]
bacterial growth as determined by optical density [1]: did not affect bacterial growth | intracellular replication of F. tularensis LVS in THP-1 monocytes (CFU) [2]: sufficient to inhibit replication of F. tularensis | MIC ([2]; Francisella tularensis, read-out: minimum inhibitory concentration (MIC)): < 7 µg/mL | LpnA production [3]: unaffected | toxicity to mammalian cells [4]: not toxic to mammalian cells | A. baumannii viability in rich growth media [5]: did not diminish A. baumannii viability | IglC protein expression [6]: significant reduction | expression of virulence factors / genes controlled by MglA/SspA (incl. FPI genes) [7]: decrease in expression of several key virulence factors; also recorded: significantly decreased expression following treatment with dillapiole | rate of survival of infected wax worms [8]: significantly higher rate of survival | IglA protein expression [9]: significant reduction | replication of F. tularensis in RAW 264.7 mouse macrophages [10]: sufficient to inhibit replication of F. tularensis | TNFα production [11]: decreased TNFα production
